Data set [1] can be described thus: Solubility in a basic environment, such as the intestine. The data set is classed as physicochemical.
Data set [2] in a line: Bioavailability on co-administration with a proton-pump inhibitor. The data set is classed as in vivo. Particulars: co-administered with a proton-pump inhibitor.

Take `COCCOc1ccc(N2CCN(CCn3ncc4c3nc(N)n3nc(-c5ccco5)nc43)CC2)cc1` [Formula IA, preladenant]: the Solubility result in data set [1] was “poorly soluble”. Moreover, in data set [2], the Bioavailability entry is reported as “sharp drop in bioavailability”.

As for `CC#Cc1nc2c3cnn(CCN4CCN(c5cc6c(C)noc6cc5F)CC4)c3nc(N)n2n1` [Formula IB], in data set [1], the Solubility result was “poorly soluble”.

The values above are taken from patent US10207002B2, “Sustained release formulation and tablets prepared therefrom” (Merck Sharp & Dohme Corp., priority 2015, dated 2019).
